From patent EP3822285A1, “VARIANT NISIN PEPTIDES” (University College Cork-National University of Ireland, Cork, priority 2019, dated 2021) come the findings set out here.

What is called MIC is the smallest concentration in the dilution series that meets the test's criterion for growth inhibition. Low readings indicate greater potency, high ones weaker potency.

Common to all, as to type: cell-based
Test [1] has as its system Thermus scotoductus SE-1. Briefly: Agar diffusion assay with cell free supernatant of producing strains. The following applies: zone diameter relative to Nisin A wild type (100). The procedure: (§1) Agar diffusion assays were carried out in triplicate using nisin producing and indicator (T. thermophilus HB27 and T. scotoductus Se-1) strains. Both the producer and indicator strains were cultured as per conditions described above. One ml of overnight culture of indicators were added to 50ml of molten Castenholz agar, briefly swirled and poured. Wells were made using sterile glass pipette. To generate cell free supernatant from nisin producing strains, 10 mls of overnight cultures of the strains were centrifuged at 950g for 20 mins. The cell free supernatant was transferred to a sterile tube. 50 µl of cell free supernatant was added to wells described above. Plates were incubated at 55°C for 3 days and the zone of clearance measured.
(§2) The cell free supernatant of nisin A and nisin variant producing L. lactis was used to determine the bioactivity of these lantibiotics against T. thermophilus HB27 and T. scotoductus SE-1 using agar diffusion assays, with the zone of clearance representing the bioactivity of the producing strain (i.e., representing a combination of the amount of the peptide produced and the specific activity of that peptide). […] Among the variants tested were those with altered N-terminal domains. The N-terminal domain of nisin is important for binding with the pyrophosphate moiety of lipid II to mediate pore formation in the cell membrane. Lysine (K) at position 12, which serves as a small flexible region between ring B and C, and is one of among the 5 positively charged residues (K12, K22, K34, H27, […]) of nisin A that contributes to its cationic nature and its attraction to the cell envelope.

For test [2], the system named is Thermus thermophilus HB27. The test is described as above. Conditions: zone diameter relative to Nisin A wild type (100). How it is done: as §1, §2
In test [3] the test system is T. rehai. Briefly: Minimum inhibitory concentration assay (Thermus). Conditions: for MIC: pure peptide, mean of triplicate assays. The procedure:
(§3) Minimum inhibitory concentration (MIC) determinations for gram negative Thermus strains were carried out in triplicate in round bottom microtitre plates (Corning). 96 well microtitre plates were pre-treated with bovine serum albumin (BSA) prior to addition of the peptides. Briefly, to each well of the microtire plates 200 µl of d.H2O (filtered with 0.2 µm filter) containing 1% (w/w) BSA was added and incubated at 37°C for 30 mins. The wells were washed with 200 µl of IX phosphate buffered saline (PBS) for 2 times after removing 1% BSA d.H2O. 100 µl of growth media, i.e., Castenholz, was added to each well. […] Target strains were grown overnight as per conditions mention above, 0.5 ml of overnight was subcultured in to 10 mls of fresh Castenholz medium and allowed to grow to an OD600 of ∼0.5. 20µl of this subculture was added to 980µl of media, 150µl of this dilution added to 14.85 ml of growth media. 100µl of this dilution added to each well resulting in a final inoculum of ∼10^5 cfu/ml in 200µl. The plates were incubated at 55° C for 3 days and the MIC was determined as the lowest concentration at which no growth was visible.
(§4) The bioactivity of cell-free supernatant can be influenced by altered diffusion rates, solubility, production or specific activity. To determine to what extent, if any, the bioactivity noted above is due to increased specific activity, nisin A (control) and the derivatives were purified and their molecular weights confirmed by MALDI TOF mass spectrometry (Table: 6) (Figure: 4). These peptides were used to perform minimum inhibitory concentration assays against six Thermus strains, i.e., T. thermophilus HB27, T. scotoductus SE-1, T. rehai, T. oshimai, T. aquaticus and T. brockianus.

Test [4] has as its system T. oshimai. Briefly: Minimum inhibitory concentration assay (Thermus). The following applies: pure peptide, mean of triplicate assays. The procedure:
as §3, §4

The subject of test [5] is T. aquaticus. The test is described as follows: Minimum inhibitory concentration assay (Thermus). The following applies: pure peptide, mean of triplicate assays. The procedure:
as §3, §4

Test [6] concerns T. thermophilus HB27. The test is described as follows: Minimum inhibitory concentration assay (Thermus). Conditions: for MIC: pure peptide, mean of triplicate assays. The procedure:
as §3, §4

Test [7] concerns T. brockianus. Briefly: Minimum inhibitory concentration assay (Thermus). Conditions: pure peptide, mean of triplicate assays. The procedure: as §3, §4
The test system of test [8] is T. scotoductus SE-1. Briefly: Minimum inhibitory concentration assay (Thermus). The following applies: for MIC: pure peptide, mean of triplicate assays. How it is done: as §3, §4

Converted amounts (≈) assume the structure as drawn. “And” between values parts separate entries of the source, which are not always exact repeats. Equal values may be shown once. Marks after values point to notes of the source that are not given here.

In the case of `C=C(NC(=O)[C@@H](NC(=O)[C@H](Cc1c[nH]cn1)NC(=O)[C@@H](NC(=O)[C@H](CO)NC(=O)[C@@H]1CS[C@@H](C)[C@H]2NC(=O)[C@H](C)NC(=O)[C@H](NC(=O)[C@H](CCCCN)NC(=O)[C@H](CCC(N)=O)NC(=O)[C@H](CC(N)=O)NC(=O)[C@@H]3CS[C@@H](C)[C@@H](NC(=O)[C@H](CCCCN)NC(=O)[C@@H]4CS[C@@H](C)[C@@H](NC(=O)[C@@H]5CSC[C@@H](NC(=O)/C(=C/C)NC(=O)[C@@H](N)[C@@H](C)CC)C(=O)N[C@@H]([C@@H](C)CC)C(=O)NC(=C)C(=O)N[C@@H](CC(C)C)C(=O)N5)C(=O)N5CCC[C@H]5C(=O)NCC(=O)N4)C(=O)NCC(=O)N[C@@H](C)C(=O)N[C@@H](CC(C)C)C(=O)N[C@@H](CCSC)C(=O)NCC(=O)N3)[C@H](C)SC[C@H](NC2=O)C(=O)N[C@@H](Cc2c[nH]cn2)C(=O)N1)[C@@H](C)CC)C(C)C)C(=O)N[C@@H](CCCCN)C(=O)O` [M21Q], the “% of wild type” value in test [1] is 124* (0.05) %. The “% difference” value in test [2] turned out to be 123%. Besides, the minimum inhibitory concentration (MIC) in test [3] was 13 µg/L and 0.0039 µM; in test [4], 6.5 µg/L and 0.00195 µM; in test [5] it was 26.1 µg/L and 0.0078 µM; in test [6], 0.0039 µM (≈ 0.0131 µg/mL); in test [7], 0.0156 µM (≈ 0.0523 µg/mL); in test [8] it was 0.0625 µM (≈ 0.209 µg/mL).

Consider `C=C(NC(=O)[C@@H](NC(=O)[C@H](Cc1c[nH]cn1)NC(=O)[C@@H](NC(=O)[C@H](CO)NC(=O)[C@@H]1CS[C@@H](C)[C@H]2NC(=O)[C@H](C)NC(=O)[C@H](NC(=O)[C@H](CCCCN)NC(=O)[C@H](CCSC)NC(=O)[C@H](CC(N)=O)NC(=O)[C@@H]3CS[C@@H](C)[C@@H](NC(=O)[C@@H](NC(=O)[C@@H]4CS[C@@H](C)[C@@H](NC(=O)[C@@H]5CSC[C@@H](NC(=O)/C(=C/C)NC(=O)[C@@H](N)[C@@H](C)CC)C(=O)N[C@@H]([C@@H](C)CC)C(=O)NC(=C)C(=O)N[C@@H](CC(C)C)C(=O)N5)C(=O)N5CCC[C@H]5C(=O)NCC(=O)N4)C(C)C)C(=O)NCC(=O)N[C@@H](C)C(=O)N[C@@H](CC(C)C)C(=O)N[C@@H](CCSC)C(=O)NCC(=O)N3)[C@H](C)SC[C@H](NC2=O)C(=O)N[C@@H](Cc2c[nH]cn2)C(=O)N1)[C@@H](C)CC)C(C)C)C(=O)N[C@@H](CCCCN)C(=O)O` [K12V], for which the “% of wild type” value in test [1] was 125* (0.04) %. For the same compound, the “% difference” value in test [2] was 145* (0.004) %. The “fold better activity than nisin A” value in test [3], in test [6] and in test [8] was 2 fold throughout. Further, the MIC in test [3] was 0.0039 µM (≈ 0.013 µg/mL); in test [4], 0.0156 µM (≈ 0.0519 µg/mL); in test [5] it was 0.0156 µM (≈ 0.0519 µg/mL); in test [6], 12.9 µg/L and 0.0039 µM; in test [7] it was 0.0156 µM (≈ 0.0519 µg/mL); in test [8], 103.9 µg/L and 0.0312 µM.
